Key:
ND3 neuronal cell line = experiment: Measurement of nerve growth stimulation effect (neurite bearing assay, neurite length assay, number of cells); assay type: cell-based; conditions: for viability at 1 µM / viability at 3 µM / viability at 5 µM / viability at 10 µM / viability at 30 µM / viability at 100 µM: 6 hours, relative cell number, DMSO well = 1
In short: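 ND3 cells were exposed 6 h to compounds in DMEM with 0.1% BSA (0.1% DMSO final), in duplicate. Neurite-bearing fraction (neurite longer than cell-body diameter) and neurite length per cell were scored by imaging and expressed relative to compound 24 maximum. Cell number was relative to DMSO wells; data with relative count <0.5 were excluded.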

[1] = Pharmacokinetics: plasma concentration after oral administration to rats; assay type: in vivo, rat; conditions: 10 mg/kg; for AUC(0-inf) / Cmax: Crl:CD(SD) (Sprague-Dawley), male rat (Crl: CD (SD)), plasma
Experimental: The required amounts of compounds were weighed, and drug suspensions were prepared in 0.5% hydroxypropyl methylcellulose. The number of rats in each group was two, and each drug suspension was administered orally to each male rat (Crl: CD (SD)) using an oral sonde (the dose of the compound was 10 mg/kg). At each blood collection point (0.5, 1, 2, 4, 8, and 24 hours after administration), blood was collected from the jugular vein using a syringe and a needle (the anticoagulant was heparin sodium). The collected blood was centrifuged (13000 rpm, 2 min, 4° C.) to prepare plasma, followed by deproteinization. Thereafter, the concentration of the compound in the plasma was measured by LC/MS/MS (ICMS-8040 (Shimadzu Corporation) or API 4000 (AB Sciex), IC: 30-A and 20-A series (Shimadzu Corporation) or Waters Acquity (Waters Corporation)).

[2] = tested on: streptozotocin (STZ)-induced DM model SD rats; experiment: Evaluation of drug efficacy in diabetes mellitus (DM) rat model (bladder function, residual urine volume); assay type: in vivo; conditions: oral twice a day for 4 weeks
Experimental: To examine the effect of the compound in a diabetes mellitus model, bladder function was analyzed by […] based on the method of Saitoh et al. (European Journal of Pharmacology 501 (2004) 143-149).
A streptozotocin (STZ) solution obtained by dissolving STZ in a citrate buffer solution (0.1 M citric acid, pH of 4.2) to a concentration of 32.5 mg/mL was prepared, and administered intraperitoneally (65 mg/kg) to SD rats to induce DM models. The same procedure was performed on sham rats except that a citrate buffer solution was used in place of the STZ solution.
On the day after the model production and 4 weeks later, a blood sample was taken from the tail vein with the rats awake to measure the blood glucose level. […] Individuals with a blood glucose level of 300 mg/dL or more on the day after the production of the model and 4 weeks later were determined to be established DM models and used in subsequent operations. […]
A pressure transducer (DX-360, Nihon Kohden Kogyo Co., Ltd.) and an infusion pump (TE-331S, Terumo Corporation) were connected via a three-way valve to the other end of a catheter inserted into the bladder. […] The volume of urination was automatically measured using an electronic balance (GX-200, A&D Company Limited) set directly under the holding cage, and recorded continuously on a computer using a PowerLab (sampling rate: 20/sec). […]

| AUC(0-inf) [1] | Cmax [1] | improvement in area under the curve (AUC) as compared to the compound 4 ([1]; rat) | improvement in maximum blood concentration Cmax as compared to the compound 4 ([1]; rat) | Compound | viability at 1 µM (ND3 neuronal cell line) | viability at 3 µM (ND3 neuronal cell line) | viability at 5 µM (ND3 neuronal cell line) | viability at 10 µM (ND3 neuronal cell line) | viability at 30 µM (ND3 neuronal cell line) | drug efficacy (residual urine volume, FIG. 1) as compared to the compound 4 [2] | viability at 100 µM (ND3 neuronal cell line) | number of relative cells (ND3 neuronal cell line; 1 to 100 μM) |
| --- | --- | --- | --- | --- | --- | --- | --- | --- | --- | --- | --- | --- |
| 0.003 µM·h | 2 nM | – | – | CC1=C(CCCCCCCCCCCCCCCO)C(C)(C)CCC1=O [Compound 4, 3-(15-hydroxypentadecyl)-2,4,4-trimethylcyclohex-2-en-1-one, reference compound] | 103% | 92% | 92% | 101% | 19% | – | – | – |
| 5.9 µM·h | 2200 nM | ≥ 1900 times | ≥ 1100 times | COCCCCCCCCCCCCCCCC1=C(C)C(=O)CCC1(C)C [Compound 24, 3-(15-methoxypentadecyl)-2,4,4-trimethylcyclohex-2-en-1-one] | 106% | 101% | 94% | 92% | 96% | remarkable drug efficacy | 92% | ≥ 0.5 |
| – | – | – | – | CCCOCCCCCCCCCCCCCC1=C(C)C(=O)CCC1(C)C [Compound 19, 2,4,4-trimethyl-3-(13-propoxytridecyl)cyclohex-2-en-1-one] | 98% | 105% | 85% | 88% | 111% | – | 105% | – |
